Measured values reported in US10233186B2, “Inhibitors of activin receptor-like kinase” (BLUEPRINT MEDICINES CORPORATION, priority 2016, dated 2019).

Assays:
[1] = target: T1, ALK2 R206H (GST-tagged mutant ALK2) (Homo sapiens, UniProt Q04771, R206H); assay: ALK binding assay (LANTHASCREEN TR-FRET competitive binding, displacement of Kinase Tracer 178); conditions: ALK2 R206H, LANTHASCREEN TR-FRET competitive binding; read-out: Binding Assay (IC50)
T1 construct: purchased Carna Bioscience or ThermoFisher 09-148 or PV6232
T1 sequence (Q04771 21-509 R206H): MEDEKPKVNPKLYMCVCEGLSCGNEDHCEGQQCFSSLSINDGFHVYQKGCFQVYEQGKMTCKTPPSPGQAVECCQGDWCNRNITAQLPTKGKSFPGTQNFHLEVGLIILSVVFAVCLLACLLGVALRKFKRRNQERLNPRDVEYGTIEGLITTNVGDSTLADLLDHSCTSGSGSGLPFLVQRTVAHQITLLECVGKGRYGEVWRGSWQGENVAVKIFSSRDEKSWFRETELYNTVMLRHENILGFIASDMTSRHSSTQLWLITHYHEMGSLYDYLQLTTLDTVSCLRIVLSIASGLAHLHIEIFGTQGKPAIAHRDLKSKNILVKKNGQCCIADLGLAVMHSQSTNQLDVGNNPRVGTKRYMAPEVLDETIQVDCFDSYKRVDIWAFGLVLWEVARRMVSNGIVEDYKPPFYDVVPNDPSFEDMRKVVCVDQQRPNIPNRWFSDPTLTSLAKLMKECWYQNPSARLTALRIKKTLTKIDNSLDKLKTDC

human ALK2 R206H = target: T2, human ALK2 R206H (Homo sapiens, UniProt Q04771, R206H); assay: Cell-based ALK2-R206H cell activity assay (Smad1-Ser463/Ser465 phosphorylation by AlphaLISA in HEK293-ALK2-R206H cells); conditions: read-out: Cell Line (Cell Assay IC50)
T2 construct: expressed in transfected cells; host or cells: HEK293 (ATCC CRL1573), lentivirus transduction, blasticidin selection
T2 sequence (Q04771 21-509 R206H): T1 sequence (Q04771 21-509 R206H)
Summary of the method: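 Stable HEK293 cells expressing C-terminally FLAG-tagged human ALK2 R206H (lentiviral, blasticidin-selected) were treated with compounds in 10-point, 3-fold dilutions from 10 μM or 1 μM top, in duplicate. Smad1 Ser463/Ser465 phosphorylation was read by AlphaLISA.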

Row | Structure (SMILES) | IC50 [1] [µM] | IC50 (human ALK2 R206H) [µM]
1 | CCN1CCN(c2ccc(-c3cc4c(N5CCN(C(=O)[C@H]6C[C@H]6C#N)CC5)ccnn4c3)cc2)CC1 [Compound 301] | < 0.01 | 0.1 to 0.5
2 | CCN1CCN(c2ccc(-c3cc4c(N5CCN(C(=O)[C@H]6C[C@@H]6C#N)CC5)ccnn4c3)cc2)CC1 [Compound 302] | < 0.01 | < 0.1
3 | O=C(C1CC1)N1CCN(c2ccnn3cc(-c4ccc([C@@H]5CCCN(C6CCC6)C5)cc4)cc23)CC1 [Compound 305] | < 0.01 | < 0.1
4 | O=C(C1CC1)N1CCN(c2ccnn3cc(-c4ccc(N5CCN6CCCCC6C5)cc4)cc23)CC1 (centres unmarked) [Compound 307] | < 0.01 | 0.1 to 0.5
5 | N#CC1CN(C(=O)N2CCN(c3ccnn4cc(-c5ccc(OC6CCCNC6)cc5)cc34)CC2)C1 (centres unmarked) [Compound 309] | < 0.01 | 0.1 to 0.5
6 | O=C(C1CC1)N1CCN(c2ccnn3cc(-c4ccc(N5CCN(C6COC6)CC5)cc4)cc23)CC1 [Compound 314, cyclopropyl(4-(6-(4-(4-(oxetan-3-yl)piperazin-1-yl)phenyl)pyrrolo[1,2-b]pyridazin-4-yl)piperazin-1-yl)methanone] | 0.01 to 0.05 | > 0.5
7 | O=C(C1CC1)N1CCN(c2ccnn3cc(-c4ccc(N5CCN6CCOCC6C5)cc4)cc23)CC1 (centres unmarked) [Compound 315] | 0.01 to 0.05 | 0.1 to 0.5
8 | CCN1CCN(c2ccc(-c3cc4c(N5CCN(C(=O)C6CC6)CC5)ccnn4c3)cc2)CC1(C)C [Compound 316] | < 0.01 | 0.1 to 0.5
9 | CC(C)N1CCC(O)(c2ccc(-c3cc4c(N5CCN(C(=O)C6CC6)CC5)ccnn4c3)cc2)CC1 [Compound 324] | < 0.01 | < 0.1
10 | CCN1CCN(c2ccc(-c3cc4c(N5CCN(C(=O)N6CCCC6)CC5)ccnn4c3)cc2)CC1 [Compound 327] | 0.01 to 0.05 | 0.1 to 0.5
11 | CCN1CC2CN(c3ccnn4cc(-c5ccc(N6CCN(C(C)C)CC6)cc5)cc34)CCN2C1=O (centres unmarked) [Compound 329] | < 0.01 | 0.1 to 0.5
12 | CCN1C[C@@H]2CN(c3ccnn4cc(-c5ccc(N6CCN(C(C)C)CC6)cc5)cc34)CCN2C1=O [Compound 330] | < 0.01 | 0.1 to 0.5
13 | CCN1CC2(C1)CN(c1ccc(-c3cc4c(N5CCN(C(=O)[C@@H]6C[C@H]6F)CC5)ccnn4c3)cc1)C2 [Compound 332] | < 0.01 | < 0.1
14 | CCN1CC2(C1)CN(c1ccc(-c3cc4c(N5CCN(C(=O)[C@H]6C[C@H]6F)CC5)ccnn4c3)cc1)C2 [Compound 333] | < 0.01 | < 0.1
15 | COCCN1CCN(c2ccc(-c3cc4c(N5CCN(C(=O)C6CC6)CC5)ccnn4c3)cc2)CC1 [Compound 334] | 0.01 to 0.05 | 0.1 to 0.5
16 | CCN1CCN(c2ccc(-c3cc4c(N5CCN(C(=O)[C@H]6C[C@@H](O)C6)CC5)ccnn4c3)cc2)CC1 [Compound 335] | > 0.05 | > 0.5
17 | CCN1CCN(c2ccc(-c3cc4c(N5CCN(C(=O)[C@H]6C[C@H](O)C6)CC5)ccnn4c3)cc2)CC1 [Compound 336] | < 0.01 | < 0.1
18 | CCOC(=O)N1CCN(c2ccnn3cc(-c4ccc(N5CC6(C5)CN(C(C)C)C6)cc4)cc23)CC1 [Compound 338] | < 0.01 | 0.1 to 0.5
19 | O=C([C@H]1CC[C@H](O)CC1)N1CCN(c2ccnn3cc(-c4ccc(C5CNCCO5)cc4)cc23)CC1 (some centres unmarked) [Compound 343] | < 0.01 | 0.1 to 0.5
20 | CCN1CCN(c2ccc(-c3cc4c(N5CCN(C(=O)N6CC(O)C6)CC5)ccnn4c3)cc2)CC1 [Compound 344] | 0.01 to 0.05 | 0.1 to 0.5
21 | CCNC(=O)N1CCN(c2ccnn3cc(-c4ccc(C5(O)CCN(C(C)C)CC5)cc4)cc23)CC1 [Compound 352] | < 0.01 | 0.1 to 0.5
22 | CCN1CCC(c2ccc(-c3cc4c(N5CCN(C(=O)C6CC6)CC5)ccnn4c3)cc2)C(F)(F)C1 (centres unmarked) [Compound 355] | 0.01 to 0.05 | > 0.5
23 | O=C(C1CC1)N1CCN(c2ccnn3cc(-c4ccc(N5CCN(CC(F)F)CC5)cc4)cc23)CC1 [Compound 359] | < 0.01 | > 0.5
24 | CCN1CCN(c2c(F)cc(-c3cc4c(N5CCN(C(=O)C6CC6)CC5)ccnn4c3)cc2F)CC1 [Compound 360] | < 0.01 | 0.1 to 0.5
25 | CCN1CCN(c2ccc(-c3cc4c(N5CCN(C(=O)C6CC6(F)F)CC5)ccnn4c3)cc2)CC1 (centres unmarked) [Compound 361] | < 0.01 | 0.1 to 0.5

Now from value to compound:

Row | IC50 [1] [µM] | IC50 (human ALK2 R206H) [µM] | Structure (SMILES)
26 | < 0.01 | < 0.1 | CCN1CC[C@@H](c2ccc(-c3cc4c(N5CCN(C(=O)N6CC(C#N)C6)CC5)ccnn4c3)cc2)C1 [Compound 303]
27 | < 0.01 | < 0.1 | CCN1CC[C@H](c2ccc(-c3cc4c(N5CCN(C(=O)N6CC(C#N)C6)CC5)ccnn4c3)cc2)C1 [Compound 304]
28 | < 0.01 | < 0.1 | CC(C)N1CC2(CN(c3ccc(-c4cc5c(N6CCN(C(=O)C7CC7)CC6)ccnn5c4)cc3)C2)C1 [Compound 308]
29 | < 0.01 | 0.1 to 0.5 | O=C(C1CC1)N1CCN(c2ccnn3cc(-c4ccc(C5CCN(C6COC6)CC5)cc4)cc23)CC1 [Compound 310]
30 | < 0.01 | < 0.1 | CC(C)N1CCCC(c2ccc(-c3cc4c(N5CCN(C(=O)C6CCC6)CC5)ccnn4c3)cc2)C1 (centres unmarked) [Compound 312]
31 | < 0.01 | < 0.1 | CCC(C)N1CCC(c2ccc(-c3cc4c(N5CCN(C(=O)C6CC6)CC5)ccnn4c3)cc2)CC1 (centres unmarked) [Compound 313]
32 | < 0.01 | 0.1 to 0.5 | CCN1CCC(c2ccc(-c3cc4c(N5CCN(C(=O)N6CCCC6)CC5)ccnn4c3)cc2)CC1 [Compound 317]
33 | < 0.01 | 0.1 to 0.5 | CC(C)N1CCN(c2ccc(-c3cc4c(N5CCN(C(=O)C6CC6)[C@H](C)C5)ccnn4c3)cc2)CC1 [Compound 318]
34 | < 0.01 | < 0.1 | CC(C)N1CC[C@H](c2ccc(-c3cc4c(N5CCN(C(=O)[C@H]6C[C@H](O)C6)CC5)ccnn4c3)cc2)C1 [Compound 320]
35 | < 0.01 | < 0.1 | CC(C)N1CC[C@@H](c2ccc(-c3cc4c(N5CCN(C(=O)[C@H]6C[C@H](O)C6)CC5)ccnn4c3)cc2)C1 [Compound 321]
36 | < 0.01 | < 0.1 | CCN1CCC(c2ccc(-c3cc4c(N5CCN(C(=O)OC6CCC6)CC5)ccnn4c3)cc2)CC1 [Compound 322]
37 | < 0.01 | < 0.1 | CC(C)N1CCCC(O)(c2ccc(-c3cc4c(N5CCN(C(=O)C6CC6)CC5)ccnn4c3)cc2)C1 (centres unmarked) [Compound 323]
38 | < 0.01 | < 0.1 | CC(C)N1CCC[C@@](O)(c2ccc(-c3cc4c(N5CCN(C(=O)C6CC6)CC5)ccnn4c3)cc2)C1 [Compound 325]
39 | < 0.01 | < 0.1 | CC(C)N1CCC[C@](O)(c2ccc(-c3cc4c(N5CCN(C(=O)C6CC6)CC5)ccnn4c3)cc2)C1 [Compound 326]
40 | < 0.01 | 0.1 to 0.5 | CCNC(=O)N1CCN(c2ccnn3cc(-c4ccc(N5CC6(C5)CN(C(C)C)C6)cc4)cc23)CC1 [Compound 328]
41 | < 0.01 | < 0.1 | CCN1CCC(c2ccc(-c3cc4c(N5CCN(C(=O)N6CC(O)C6)CC5)ccnn4c3)cc2)CC1 [Compound 337]
42 | < 0.01 | < 0.1 | CCNC(=O)N1CCN(c2ccnn3cc(-c4ccc(C5CCN(C(C)C)CC5)cc4)cc23)C[C@H]1C [Compound 339]
43 | < 0.01 | < 0.1 | CC(C)NC(=O)N1CCN(c2ccnn3cc(-c4ccc(C5CCN(C(C)C)CC5)cc4)cc23)CC1 [Compound 340]
44 | < 0.01 | < 0.1 | CCCNC(=O)N1CCN(c2ccnn3cc(-c4ccc(C5CCN(C(C)C)CC5)cc4)cc23)CC1 [Compound 341]
45 | < 0.01 | < 0.1 | CC(C)N1CCC(c2ccc(-c3cc4c(N5CCN(C(=O)C6CC6)CC5)ccnn4c3)cc2F)CC1 [Compound 345]
46 | < 0.01 | < 0.1 | CC(C)NC(=O)N1CCN(c2ccnn3cc(-c4ccc(N5CCN(C(C)C)CC5)cc4)cc23)CC1 [Compound 348]
47 | < 0.01 | < 0.1 | CC(C)N1CCN(c2ccc(-c3cc4c(N5CCN(C(=O)[C@@H]6C[C@H]6F)CC5)ccnn4c3)cc2)CC1 [Compound 349]
48 | < 0.01 | < 0.1 | CC(C)N1CCN(c2ccc(-c3cc4c(N5CCN(C(=O)[C@H]6C[C@H]6F)CC5)ccnn4c3)cc2)CC1 [Compound 350]
49 | < 0.01 | < 0.1 | CCNC(=O)N1CCN(c2ccnn3cc(-c4ccc(C5(O)CCCN(C(C)C)C5)cc4)cc23)CC1 (centres unmarked) [Compound 351]
50 | < 0.01 | 0.1 to 0.5 | CC(C)N1CCC(c2ccc(-c3cc4c(N5CCN(C(=O)NCCO)CC5)ccnn4c3)cc2)CC1 [Compound 353]
51 | < 0.01 | < 0.1 | CCNC(=O)N1CCN(c2ccnn3cc(-c4ccc(C5CCN(C(C)C)CC5)c(F)c4)cc23)CC1 [Compound 354]
52 | < 0.01 | < 0.1 | CCOC(=O)N1CCN(c2ccnn3cc(-c4ccc(C5CCN(C(C)C)CC5)c(F)c4)cc23)CC1 [Compound 357]
